Reference: patent US20040235666A1, “Substituted imidates as pesticidal agents” (priority 2001, published 2004)

How the values were obtained:
[1] = log P determination by HPLC (EEC Directive 79/831 Annex V.A8, reversed-phase C18); format: physicochemical; conditions: reversed-phase C18 HPLC column, C18, 43° C., 0.1% aqueous phosphoric acid/acetonitrile gradient
Description: The log P values given in Table 1 were determined in accordance with EEC Directive 79/831 Annex V.A8 by HPLC (High Performance Liquid Chromatography) using a reversed-phase column (C18). Temperature: 43° C. Mobile phase: 0.1% aqueous phosphoric acid, acetonitrile; linear gradient from 10% acetonitrile to 90% acetonitrile Calibration was carried out using unbranched alkan-2-ones (having 3 to 16 C atoms) with known log P values. (Determination of the log P values by the retention times using linear interpolation between two successive alkanones).

[2] = tested on: Meloidogyne incognita egg/larvae; test: Meloidogyne test (sand, lettuce, gall formation); format: in vivo; conditions: 20 ppm; nematicidal action by gall formation on lettuce roots; 100% = no galls
Description: To prepare a suitable preparation of active compound, 1 part by weight of active compound is mixed with 30 parts by weight of dimethylformamide and 1 part by weight of emulsifier (alllylaryl polyglycol ether), and the concentrate is diluted with water to the desired concentration.
Containers are filled with sand, solution of active compound, Meloidogyne incognita egg/larvae suspension and lettuce seeds. The lettuce seeds germinate and the plants develop. On the roots, galls are formed.
After the period of time indicated in the table, the nematicidal action is determined in % using gall formation as a measure. 100% means that no galls were found; 0% means that the number of galls on the treated plants corresponds to that of the untreated control.
In this test, for example, the following compounds of the Preparation Examples show good activity: […]

[3] = tested on: Meloidogyne incognita larvae; test: Meloidogyne test/aqueous system; format: in vivo; conditions: 40 ppm; nematicidal action by activity of the larvae; 96-well plate; 100% = no activity found
Description: Meloidogyne Test/Aqueous System To prepare a suitable preparation of active compound, 1 part by weight of active compound is mixed with 1 000 parts by weight of methanol, and per preparation to be tested, 10 μl are added to a well of a 96-well plate (from Greiner), where the solvent evaporates. In the 96-well plates, the wells containing the active compound are filled with lecithin solution (0.01%) and Meloidogyne incognita larvae suspension. The concentration of active compound is now 40 ppm. After the time indicated in the table, the nematicidal action is determined in % by the activity of the larvae. 100% means that no activity has been found; 0% means that the activity in the treated wells corresponds to that of the untreated control.

Row | SMILES | chromatographic logP [1] | Effect in % after 4 days [2] | Effect in % after 4 days [3]
1 | CC(c1ccc(Cl)cc1)N1CCN(C)C1=NC#N (stereo not drawn) [Example 23] | 2.29 | 90% | 
2 | CC(c1ccccc1Cl)N1CCSC1=NC#N (stereo not drawn) [Example 3] |  | 100% | 
3 | CC(c1ccc(Cl)cc1)N1CCCN/C1=N\C(N)=S (stereo not drawn) [Example 41] | 1.48 |  | 
4 | CC(c1ccc(Cl)cc1)N1CCSC1=NC#N (stereo not drawn) [Example 14] |  | 100% | 100%
5 | CCc1ccc(C(C)N2CCSC2=NC#N)cc1 (stereo not drawn) [Example 7] | 2.09 |  | 
6 | CC(C)c1ccc(C(C)N2CCSC2=NC#N)cc1 (stereo not drawn) [Example 15] | 3.11 |  | 
7 | CC(c1ccc(Cl)cc1)N1CCCN(C)C1=NC#N (stereo not drawn) [Example 28] | 2.23 | 95% | 
8 | N#CN=C1SCCN1C1Cc2ccc(Cl)cc2C1 (stereo not drawn) [Example 33] | 2.68 |  | 
9 | CC(c1ccc(Cl)cc1)N1CC[S+]([O-])/C1=N\C#N (stereo not drawn) [Example 40] | 1.86 |  | 
10 | CC(c1ccc(Cl)cc1)N1CCNC1=NC#N (stereo not drawn) [Example 1, 1-[1-(4-Chlorophenyl)ethyl]-2-imidazolidinylidenecyanamide] |  | 98% | 
11 | CCC(c1ccccc1Cl)N1CCSC1=NC#N (stereo not drawn) [Example 4] |  | 100% | 
12 | CC(c1ccc(Cl)cc1)N1CCCC1=NC#N (stereo not drawn) [Example 22] |  | 100% | 
13 | CSc1ccc(Oc2cccc(CCN3CCSC3=NC#N)c2)cc1 [Example 21] | 3.29 |  | 
14 | N#CN=C1SCCN1C(CF)c1ccc(Cl)cc1 (stereo not drawn) [Example 18] | 2.41 |  | 

More lines, main results first:

Row | chromatographic logP [1] | SMILES | Effect in % after 4 days [2] | Effect in % after 4 days [3]
15 | 2.84 | CC(c1ccc(Cl)c(Cl)c1)N1CCSC1=NC#N (stereo not drawn) [Example 13] |  | 
16 | 1.48 | CC(c1ccc(Cl)cc1)N1CCCN(C)/C1=N\C(N)=S (stereo not drawn) [Example 43] |  | 
17 | 3.33 | CSc1ccc(Oc2ccccc2CCN2CCS/C2=N\C#N)cc1 [Example 45] |  | 
18 | 1.89 | CC(=O)Oc1ccc(CCN2CCS/C2=N\C#N)cc1 [Example 46] |  | 
19 | 2.52 | CC1CN(C)/C(=N\C#N)N(C(C)c2ccc(Cl)cc2)C1 (stereo not drawn) [Example 50] |  | 
20 | 2.21 | CC(c1ccc(Cl)cc1)N1OCCN(C)/C1=N\C#N (stereo not drawn) [Example 42] |  | 
21 | 2.59 | CC(c1ccc(Cl)c(Cl)c1)N1CCCO/C1=N\C#N (stereo not drawn) [Example 48] |  | 
22 | 3.06 | Cc1ccc(C(C)N2CCSC2=NC#N)cc1 (stereo not drawn) [Example 12] |  | 
23 | 2.28 | CC(c1ccc(Cl)cc1)N1COCC/C1=N\C#N (stereo not drawn) [Example 52] |  | 
24 | 2.65 | CC1CN/C(=N\C#N)N(C(C)c2ccc(Cl)cc2)C1 (stereo not drawn) [Example 49] |  | 
25 | 2.43 | CC(c1ccc(Cl)cc1Cl)N1CCCO/C1=N\C#N (stereo not drawn) [Example 47] |  | 
26 | 2.81 | CCC(c1ccc(Cl)cc1)N1CCS/C1=N\C#N (stereo not drawn) [Example 39] |  | 
27 | 2.63 | CC(c1ccc(Cl)cc1)N1CSCC/C1=N\C#N (stereo not drawn) [Example 51] |  | 
